Experimental findings from patent US6867192B1, “Compounds useful in the treatment of inflammatory diseases” (priority 1998, dated 2005) are described below.

Like-named read-outs stand apart in the source and are kept apart here.

The target in assay [1] is T1, integrin VLA-4, expressed on the Jurkat J6 (human lymphoblast cell line) cell membrane with VCAM-1 (Homo sapiens, UniProt P05556+P13612).
T1 construct: integrin VLA-4, expressed on the Jurkat J6 (human lymphoblast cell line) cell membrane; endogenous in cells; host or cells: Jurkat J6 cells (integrin). zzVCAM-1 was made in house in Drosophila melanogaster S2 cells
As to the kind of experiment: Jurkat J6/VCAM-1 adhesion assay. Conditions: Jurkat J6 cell adhesion to VCAM-1, 1 mM MnCl2; mean of n experiments. The assay is classed as cell-based. Put shortly: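 Jurkat J6 cells loaded with BCECF-AM were added with compound in HBSS with 1 mM MnCl2 to plates coated with IgG-captured zzVCAM-1 (seven-domain, S2-expressed) and left to adhere for 30 min at 37 °C. After washing, fluorescence was read. pIC50 came from a four-parameter fit between no compound and 2 mM EDTA.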

Another assay has as its system CD4+ T-cells. As to the kind of experiment: CD3/VCAM-1 co-stimulation of T-lymphocyte proliferation. The assay is classed as cell-based. To be noted: T-cell; [3H] thymidine incorporation, 4 days incubation, anti-CD3/zzVCAM-1 coated plates. The procedure: (2) CD3/VCAM-1 Co-stimulation of T-Lymphocyte Proliferation
CD4^+ T-cells were purified from peripheral blood mononuclear cells by negative selection with anti-CD14, CD19, CD16 and HLA.DR antibodies and Dynal beads. Flat bottomed 96-well tissue culture plates were coated with 1 μg ml^−1 anti-CD3 antibody (OKT3), washed and incubated with human IgG and zzVCAM-1 fusion proteins. The CD4^+ T cells (prepared in RPMI-1640 medium supplemented with 10% FCS, penicillin or streptomycin and L-glutamine) were added to the coated plates (1×10^5 cells well^−1) and incubated in the presence or absence of various doses of compound or blocking antibodies for 4 days. Radiolabelled thymidine [^3H] was added for the final 6 hours of incubation and the cells were then harvested using a Skatron plate harvester. Incorporation of the [^3H] label was measured as an indicator of T cell proliferation using a β plate counter. Compounds were assayed in triplicate and data was collected in an analogous procedure to that described for Assay (1).

Assay [2] relates to ovalbumin sensitised guinea pigs. As to the kind of experiment: Inhibition of eosinophil infiltration and hyper-reactivity in the guinea pig. To be noted: Cavia porcellus, Eosinophil, inhaled or nasal, 24 h, 0.5 hours before and 6 hours after antigen challenge; for inhibition in vivo at 0.0002 mg/kg: intratracheal dose 0.2 μg/kg body weight; for inhibition in vivo at 0.002 mg/kg: intratracheal dose 2 μg/kg body weight. The assay is classed as in vivo. The procedure: (3) Inhibition of Eosinophil Infiltration and Hyper-Reactivity in the Guinea Pig
In a method based on that described by Danahay et al., 1997, ovalbumin sensitised guinea pigs were dosed with mepyramine (30 mg kg^−1 ip) to protect against anaphylactic bronchospasm. Test compounds, dissolved in 0.9% saline, were given by the inhaled route (30 minutes breathing of an aerosol of the compound) or the intra-tracheal route, 30 minutes before and 6 hours after ovalbumin challenge (10 minutes breathing of an aerosol generated from a 0.5% solution of ovalbumin). Hyper-reactivity of the airways to the thromboxane mimetic U46619, was measured 24 hours after ovalbumin challenge in un-restrained animals using a whole body plethysmograph (Buxco Ltd., USA). The guinea pigs were then sacrificed and the lungs lavaged. Total and differential leukocyte counts were then obtained for the bronchoalveolar lavage fluid and the percentage reduction in eosinophil accumulation determined (Sanjar et al., 1992). Dexamethasone (200 μg kg^−1 i.t) was used as a positive control. Data was presented as the inhibitory effect of the specified dose expressed as a percentage of the vehicle control response.

[3] abbreviates: airway hyper-reactivity to U46619, read-out: % Inhibition Hyper-reactivity.
Setting [4] is: read-out: % Inhibition Eosinophil Accumulation.

T1 sequence (P13612 34-1032): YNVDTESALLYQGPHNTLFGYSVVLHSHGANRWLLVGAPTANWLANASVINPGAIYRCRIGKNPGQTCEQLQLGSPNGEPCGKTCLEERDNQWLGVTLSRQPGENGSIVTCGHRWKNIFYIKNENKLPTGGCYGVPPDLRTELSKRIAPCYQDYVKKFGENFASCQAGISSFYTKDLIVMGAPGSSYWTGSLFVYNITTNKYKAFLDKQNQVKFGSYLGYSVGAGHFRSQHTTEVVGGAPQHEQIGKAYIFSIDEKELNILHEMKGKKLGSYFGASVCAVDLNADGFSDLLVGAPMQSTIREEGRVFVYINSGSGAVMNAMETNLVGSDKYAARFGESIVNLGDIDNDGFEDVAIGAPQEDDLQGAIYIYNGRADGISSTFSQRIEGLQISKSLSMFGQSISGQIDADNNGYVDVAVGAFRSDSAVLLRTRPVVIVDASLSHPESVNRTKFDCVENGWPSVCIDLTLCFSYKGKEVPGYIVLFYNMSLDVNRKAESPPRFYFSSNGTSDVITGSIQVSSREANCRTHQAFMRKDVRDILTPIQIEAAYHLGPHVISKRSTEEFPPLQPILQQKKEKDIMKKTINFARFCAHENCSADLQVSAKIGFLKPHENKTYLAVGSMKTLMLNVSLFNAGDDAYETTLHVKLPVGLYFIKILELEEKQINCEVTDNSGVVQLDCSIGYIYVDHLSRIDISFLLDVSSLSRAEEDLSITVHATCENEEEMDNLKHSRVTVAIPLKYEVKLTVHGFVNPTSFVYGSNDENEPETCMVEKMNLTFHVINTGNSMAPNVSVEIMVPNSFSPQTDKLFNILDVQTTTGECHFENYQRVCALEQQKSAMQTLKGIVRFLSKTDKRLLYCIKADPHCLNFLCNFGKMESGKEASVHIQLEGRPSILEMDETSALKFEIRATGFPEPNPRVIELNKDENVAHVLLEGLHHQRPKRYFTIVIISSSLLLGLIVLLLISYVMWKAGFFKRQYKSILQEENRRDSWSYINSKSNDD
T1 sequence (P05556 21-798): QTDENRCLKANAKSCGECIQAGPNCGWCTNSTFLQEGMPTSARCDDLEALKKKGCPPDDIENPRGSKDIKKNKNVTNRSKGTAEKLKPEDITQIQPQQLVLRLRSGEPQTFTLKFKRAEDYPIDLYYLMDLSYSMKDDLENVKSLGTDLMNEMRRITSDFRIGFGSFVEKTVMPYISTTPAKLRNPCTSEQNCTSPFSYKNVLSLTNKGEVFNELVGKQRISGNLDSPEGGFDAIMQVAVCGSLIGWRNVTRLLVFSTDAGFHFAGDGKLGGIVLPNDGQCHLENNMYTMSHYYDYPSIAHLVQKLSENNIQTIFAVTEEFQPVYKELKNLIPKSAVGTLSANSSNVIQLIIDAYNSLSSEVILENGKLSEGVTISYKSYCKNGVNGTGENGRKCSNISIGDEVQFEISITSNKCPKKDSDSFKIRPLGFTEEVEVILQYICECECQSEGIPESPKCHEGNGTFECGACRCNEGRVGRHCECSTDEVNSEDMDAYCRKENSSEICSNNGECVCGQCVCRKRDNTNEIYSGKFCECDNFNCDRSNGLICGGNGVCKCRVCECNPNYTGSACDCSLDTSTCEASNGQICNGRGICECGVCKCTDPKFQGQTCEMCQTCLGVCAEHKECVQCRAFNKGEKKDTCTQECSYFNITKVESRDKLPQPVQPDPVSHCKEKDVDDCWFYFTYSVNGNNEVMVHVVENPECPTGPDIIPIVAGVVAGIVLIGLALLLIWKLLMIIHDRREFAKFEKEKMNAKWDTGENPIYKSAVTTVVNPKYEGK

For `CC(=O)N1CCN(C(=O)Oc2ccc(C[C@H](NC(=O)[C@H](CC(C)C)NC(=O)COc3ccccc3C(C)(C)C)C(=O)O)cc2)CC1` [Example 16, (2S)-3-(4-{[(4-Acetyl-1-piperazinyl)carbonyl]oxy}phenyl)-2-{[(2S)-2-({2-[2-(tert-butyl)phenoxy]acetyl}amino)-4-methylpentanoyl]amino}propanoic acid], the IC50 in assay [1] was 3.24 nM; with CD4+ T-cells, 39.8 nM. Moreover, the figures for the inhibition in vivo at 0.0002 mg/kg in assay [2] (setting [3]) and in assay [2] (setting [4]) were 80% and 62%, respectively. Also, the figures for the inhibition in vivo at 0.002 mg/kg in assay [2] (setting [3]) and in assay [2] (setting [4]) were 95% and 78%, respectively.
Consider `CC(=O)N1CCN(C(=O)Oc2ccc(C[C@H](NC(=O)[C@H](CC(C)C)NC(=O)COc3ccccc3C)C(=O)O)cc2)CC1` [Example 17, (2S)-3-(4-{[(4-Acetyl-1-piperazinyl)carbonyl]oxy}phenyl)-2-[((2S)-4-methyl-2-{[2-(2-methylphenoxy)acetyl]amino}pentanoyl)amino]propanoic acid], for which the results for the IC50 (in assay [1]; in the assay on CD4+ T-cells) were 2.57 nM and 31.6 nM, respectively. In addition, the inhibition in vivo at 0.0002 mg/kg in assay [2] (setting [3]) was determined as 58%; in assay [2] (setting [4]), 68%. Also, the figures for the inhibition in vivo at 0.002 mg/kg in assay [2] (setting [3]) and in assay [2] (setting [4]) were 88% and 61%, respectively.
As to `CC(C)C[C@H](NC(=O)COc1ccccc1C(C)(C)C)C(=O)N[C@@H](Cc1ccc(OC(=O)N2CCN(C(=O)c3ccccc3)CC2)cc1)C(=O)O` [Example 20, (2S)-3-(4-{[(4-Benzoyl-1-piperazinyl)carbonyl]oxy}phenyl)-2-{[(2S)-2-({2-[2-(tert-butyl)phenoxy]acetyl}amino)-4-methylpentanoyl]amino}propanoic acid], the IC50 is 14.8 nM in assay [1] and 126 nM in the assay with CD4+ T-cells. Also, the figures for the inhibition in vivo at 0.0002 mg/kg in assay [2] (setting [3]) and in assay [2] (setting [4]) were 85% and 67%, respectively. The inhibition in vivo at 0.002 mg/kg in assay [2] (setting [3]) came out at 100%; in assay [2] (setting [4]), 79%.
For `Cc1ccccc1OCC(=O)N[C@@H](CC(C)C)C(=O)N[C@@H](Cc1ccc(OC(=O)N2CCN(C(=O)c3ccccc3)CC2)cc1)C(=O)O` [Example 21, (2S)-3-(4-{[(4-Benzoyl-1-piperazinyl)carbonyl]oxy}phenyl)-2-[((2S)-4-methyl-2-{[2-(2-methylphenoxy)acetyl]amino}pentanoyl)amino]propanoic acid], the half-inhibitory concentration (IC50) in assay [1] was 3.89 nM; in the assay on CD4+ T-cells, 126 nM. In addition, the inhibition in vivo at 0.0002 mg/kg was determined as 82% in assay [2] (setting [3]) and 49% in assay [2] (setting [4]). The values for the inhibition in vivo at 0.002 mg/kg in assay [2] (setting [3]) and in assay [2] (setting [4]) were 85% and 79%, respectively.
As to `CC(C)C[C@H](NC(=O)COc1ccccc1I)C(=O)N[C@@H](Cc1ccc(OC(=O)N2CCOCC2)cc1)C(=O)O` [Example 23, (2S)-2-[((2S)-2-{[2-(2-Iodophenoxy)acetyl]amino}-4-methylpentanoyl)amino]-3-{4-[(4-morpholinylcarbonyl)oxy]phenyl}propanoic acid], the half-inhibitory concentration (IC50) is 4.47 nM in assay [1] and 126 nM in the assay with CD4+ T-cells. Moreover, the inhibition in vivo at 0.002 mg/kg turned out to be 79% in assay [2] (setting [3]) and 51% in assay [2] (setting [4]).
For `CC(C)C[C@H](NC(=O)COc1ccccc1C(C)(C)C)C(=O)N[C@@H](Cc1ccc(OC(=O)N2CCOCC2)cc1)C(=O)O` [Example 24, (2S)-2-{[(2S)-2-({2-[2-(Tert-butyl)phenoxy]acetyl}amino)-4-methylpentanoyl]amino}-3-{4-[(4-morpholinylcarbonyl)oxy]phenyl}propanoic acid], the IC50 in assay [1] was 6.03 nM; in the assay on CD4+ T-cells it was 79.4 nM. Further, the inhibition in vivo at 0.0002 mg/kg was 44% in assay [2] (setting [3]) and 26% in assay [2] (setting [4]). Moreover, the figures for the inhibition in vivo at 0.002 mg/kg in assay [2] (setting [3]) and in assay [2] (setting [4]) were 85% and 77%, respectively.
In the case of `Cc1ccccc1OCC(=O)N[C@@H](CC(C)C)C(=O)N[C@@H](Cc1ccc(OC(=O)N2CCC(C(N)=O)CC2)cc1)C(=O)O` [Example 27, (2S)-3-[4-({[4-(Aminocarbonyl)-1-piperidinyl]carbonyl}oxy)phenyl]-2-[((2S)-4-methyl-2-{[2-(2-methylphenoxy)acetyl]amino}pentanoyl)amino]propanoic acid], the half-inhibitory concentration (IC50) in assay [1] was 2.82 nM; with CD4+ T-cells, 31.6 nM. Also, the figures for the inhibition in vivo at 0.0002 mg/kg in assay [2] (setting [3]) and in assay [2] (setting [4]) were 88% and 58%, respectively. Moreover, the inhibition in vivo at 0.002 mg/kg in assay [2] (setting [3]) worked out at 87%; in assay [2] (setting [4]), 90%.
Take `CC(C)C[C@H](NC(=O)c1cccc2c1oc1ccccc12)C(=O)N[C@@H](Cc1ccc(OC(=O)N2CCC(C(N)=O)CC2)cc1)C(=O)O` [Example 28, (2S)-3-[4-({[4-(Aminocarbonyl)-1-piperidinyl]carbonyl}oxy)phenyl]-2-({(2S)-2-[(dibenzo[b,d]furan-4-ylcarbonyl)amino]-4-methylpentanoyl}amino)propanoic acid]: the IC50 is 3.47 nM in assay [1] and 158 nM with CD4+ T-cells. The values for the inhibition in vivo at 0.0002 mg/kg in assay [2] (setting [3]) and in assay [2] (setting [4]) were 70% and 3%, respectively. The inhibition in vivo at 0.002 mg/kg in assay [2] (setting [3]) worked out at 47%; in assay [2] (setting [4]), 62%.
